From US20230145794A1, “SOLVENT COMPOSITIONS PROMOTING PLANT GROWTH” (WinField Solutions, LLC, priority 2021, published 2023)

Test: not given
Details: known solvent, from Safety Data Sheet; cited from earlier work

Row | Structure (SMILES) | Density [g/mL] | Flash Point [C. °] | Boiling Point [C. °]
1 | CCOC(C)=O [compound 1, Ethyl acetate] | 1.049 |  | 
2 | OCC1CCCO1 (stereo not shown) [compound 6, Tetrahydrofurfyl Alcohol] |  | 84 | 
3 | CC(=O)OCC(COC(C)=O)OC(C)=O [compound 12, Glyceryl triacetate] |  | 138 | 
4 | CCCCOCCOCCO [compound 4, Diethylene glycol butyl ether] | 0.967 | 78 | 
5 | CCCCC(CC)CO (stereo not shown) [compound 7, Ethyl hexanol] | 0.833 | 73 | 185
6 | COCC(C)O (stereo not shown) [compound 2, 1-methoxy-2-propanol] | 0.942 |  | 
7 | CCCCCOC(C)=O [compound 14, Amyl Acetate] | 0.876 | 32 | 
8 | CC(=O)OCCCCCCCC=O [compound 11, Oxo-octyl acetate] | 0.867 | 86 | 211
9 | CCCCOCCO [compound 3, Ethylene glycol butyl ether, 2-butoxyl ethanol] |  | 60 | 
10 | CC(O)CO (stereo not shown) [compound 9, Propylene Glycol] | 1.036 | 101 | 
11 | CCCCOC(=O)C(C)O (stereo not shown) [compound 8, Butyl lactate] |  | 76 | 
12 | CCCCC(CC)COC(=O)C(C)O (stereo not shown) [compound 5, Lactic acid, 2-ethylhexyl ester] | 1.209 | 110 | 

Test: Physical properties of solvent/PGR compositions (flash point tester, pH, density)
Format: physicochemical
Details: flashpoint tester
Procedure: The physical properties of the various solvents and solvent combinations in combination with the assortment of PGR compositions were determined using standard laboratory equipment. Flash point was determined using a flashpoint tester.
The solvents initially examined included 2-butoxy ethanol (“BE”), BHT, propylene glycol (“PG”), methoxy propanol, water, polyethelene glycol (“PEG”), and Tetrahydrofurfyl alcohol (“THFA”), alone and/or in various combinations, with and without PGR compositions including Kinetin, indole butyric acid (“IBA”) and gibberellin A4 (“GA4”).

Row | Structure (SMILES) | Flash Point [C°]
13 | COCC(C)O (stereo not shown) [Comp 40, methoxy propanol] | 89
14 | OCC1CCCO1 (stereo not shown) [Comp 41, THFA] | 183
